From patent US20210189342A1, “COMPOSITIONS AND METHODS FOR MODULATING MONOCYTE AND MACROPHAGE INFLAMMATORY PHENOTYPES AND IMMUNOTHERAPY USES THEREOF” (Verseau Therapeutics, Inc., priority 2018, published 2021)
pIC50: −log10 of the molar value.

System: SELPLG
Experiment: siRNA dose response, SELPLG mRNA knockdown, bDNA Assay
Type: cell-based, human
Conditions: THP-1, 24 hr
Method: (§1) Dose response curves for siRNAs were generated in vitro using a variety of cell lines according to Table 4.
(§2) Briefly, cells were seeded in 96-well plates and reverse transfected with siRNA, Lipofectamine® 2000 (0.5 uL/well; ThermoFisher), and, in some cases, a reporter plasmid (50 ng/well). The reporter plasmid (psiCHECK™-2, Promega) encoded both firefly luciferase and the gene of interest fused to renilla luciferase; silencing of the gene of interest results in proportional silencing of renilla luciferase but leaves firefly luciferase unaffected as an internal control.
(§3) After 24 hr incubation at 37° C., mRNA knockdown was measured using an endpoint assay. For targets without a reporter plasmid, a branched DNA (bDNA) assay was performed according to the manufacturer's instructions (QuantiGene® Singleplex Gene Expression Assay, ThermoFisher) to measure both the target gene and GAPDH (housekeeping gene) mRNA. Data are plotted as siRNA concentration (nM) vs. remaining mRNA (ratio of target gene to GAPDH, normalized to mock siRNA-transfected cells). For targets with a reporter plasmid, a Dual-Glo® Luciferase Assay was performed according to the manufacturer's instructions (Promega) to measure firefly and renilla luciferase expression. Data are plotted as siRNA concentration (nM) vs. remaining mRNA (ratio of renilla to firefly luminescence, normalized to mock siRNA-transfected cells).
(§4) For all dose response curves, a 4-parameter logistic model was applied to determine the IC50 of each siRNA sequence (Table 5 and FIG. 2). Data shown in Table 5 and FIG. 2 represent the mean of quadruplicates, +/−standard deviation.

Substance | pIC50
XD-09265: siRNA targeting SELPLG (sense 5'-aaGcAGAcGGGcAaGuGGAdTsdT-3'; antisense 5'-UCcACUUGCCCGUCUGCUUdTsdT-3'; RNA with 2'-O-methyl and phosphorothioate modifications, case key not given here, as printed in the source, key not given here) | 9.31
XD-09266: siRNA targeting SELPLG (sense 5'-aguAcuGAAGAGugAcGGAdTsdT-3'; antisense 5'-UCCGUcACUCUUcAGuACUdTsdT-3'; RNA with 2'-O-methyl and phosphorothioate modifications, case key not given here, as printed in the source, key not given here) | 9.68
XD-09267: siRNA targeting SELPLG (sense 5'-acuGAAGAGuGAcgGAcuudTsdT-3'; antisense 5'-AAGUCCGUcACUCUUcAGUdTsdT-3'; RNA with 2'-O-methyl and phosphorothioate modifications, case key not given here, as printed in the source, key not given here) | 8.97
XD-09268: siRNA targeting SELPLG (sense 5'-ccAAGGGcAGAccuuucuudTsdT-3'; antisense 5'-AAGAAAGGUCUGCCCUUGGdTsdT-3'; RNA with 2'-O-methyl and phosphorothioate modifications, case key not given here, as printed in the source, key not given here) | 9.33

System: TNFAIP8L2
Experiment: siRNA dose response, TNFAIP8L2 mRNA knockdown, bDNA Assay
Type: cell-based, human
Conditions: THP-1, 24 hr
Method: as §1, §2, §3, §4

Substance | pIC50
XD-09760: siRNA targeting TNFAIP8L2 (sense 5'-ggAccAGGccGuGaucucudTsdT-3'; antisense 5'-AGAGAUcACGGCCUGGUCCdTsdT-3'; RNA with 2'-O-methyl and phosphorothioate modifications, case key not given here, as printed in the source, key not given here) | 10.24
XD-09761: siRNA targeting TNFAIP8L2 (sense 5'-ggucAGGuGGAGAucucuudTsdT-3'; antisense 5'-AAGAGAUCUCcACCUGACCdTsdT-3'; RNA with 2'-O-methyl and phosphorothioate modifications, case key not given here, as printed in the source, key not given here) | 9.15
XD-09762: siRNA targeting TNFAIP8L2 (sense 5'-uuuAAuGuAucGcuAccAAdTsdT-3'; antisense 5'-UUGGuAGCGAuAcAUuAAAdTsdT-3'; as printed in the source, key not given here) | 9.65
XD-09764: siRNA targeting TNFAIP8L2 (sense 5'-cguuGcGcuGGAAgGAAuudTsdT-3'; antisense 5'-AAUUCCUUCcAGCGcAACGdTsdT-3'; as printed in the source, key not given here) | 8.53
XD-09765: siRNA targeting TNFAIP8L2 (sense 5'-cuGcGcGAGGcGcaAuAcAdTsdT-3'; antisense 5'-UGuAUUGCGCCUCGCGcAGdTsdT-3'; RNA with 2'-O-methyl and phosphorothioate modifications, case key not given here, as printed in the source, key not given here) | 10.64
XD-09766: siRNA targeting TNFAIP8L2 (sense 5'-cccucGAuGuAcAuAGcuudTsdT-3'; antisense 5'-AAGCuAUGuAcAUCGAGGGdTsdT-3'; RNA with 2'-O-methyl and phosphorothioate modifications, case key not given here, as printed in the source, key not given here) | 9.90
XD-09768: siRNA targeting TNFAIP8L2 (sense 5'-aaAucAAucAuGuuAcAcudTsdT-3'; antisense 5'-AGUGuAAcAUGAUUGAUUUdTsdT-3'; RNA with 2'-O-methyl and phosphorothioate modifications, case key not given here, as printed in the source, key not given here) | 9.45
XD-09796: siRNA targeting TNFAIP8L2 (sense 5'-gcAcAuAGcAAGcuGAAcudTsdT-3'; antisense 5'-AGUUcAGCUUGCuAUGUGCdTsdT-3'; RNA with 2'-O-methyl and phosphorothioate modifications, case key not given here, as printed in the source, key not given here) | 7.94

System: SPI1
Experiment: siRNA dose response, SPI1 mRNA knockdown, bDNA Assay
Type: cell-based, human
Conditions: THP-1, 24 hr
Method: as §1, §2, §3, §4

Substance | pIC50
XD-09780: siRNA targeting SPI1 (sense GGAUCUAUACCAACGCCAATT; antisense UUGGCGUUGGUAUAGAUCCTT; 2'-O-methyl and phosphorothioate modified, lower-case key not given here) | 8.57
XD-09781: siRNA targeting SPI1 (sense CGCCAAACGCACGAGUAUUTT; antisense AAUACUCGUGCGUUUGGCGTT; 2'-O-methyl and phosphorothioate modified, lower-case key not given here) | 9.34
XD-09783: siRNA targeting SPI1 (sense GCGACAUGAAGGACAGCAUTT; antisense AUGCUGUCCUUCAUGUCGCTT; 2'-O-methyl and phosphorothioate modified, lower-case key not given here) | 8.96
XD-09785: siRNA targeting SPI1 (sense GUCUCAAGUCCGUAUGUAATT; antisense UUACAUACGGACUUGAGACTT; 2'-O-methyl and phosphorothioate modified, lower-case key not given here) | 9.32
XD-09786: siRNA targeting SPI1 (sense UCUCAAGUCCGUAUGUAAATT; antisense UUUACAUACGGACUUGAGATT; 2'-O-methyl and phosphorothioate modified, lower-case key not given here) | 9.60
XD-09787: siRNA targeting SPI1 (sense CCGUAUGUAAAUCAGAUCUTT; antisense AGAUCUGAUUUACAUACGGTT; 2'-O-methyl and phosphorothioate modified, lower-case key not given here) | 10.12
XD-09788: siRNA targeting SPI1 (sense 5'-acAAGuAAAGuuAuucucAdTsdT-3'; antisense 5'-UGAGAAuAACUUuACUUGUdTsdT-3'; as printed in the source, key not given here) | 8.88
XD-09789: siRNA targeting SPI1 (sense 5'-aaAGuuAuucucAauccAudTsdT-3'; antisense 5'-AUGGAUUGAGAAuAACUUUdTsdT-3'; as printed in the source, key not given here) | 9.35

System: CD207
Experiment: siRNA dose response, CD207 mRNA knockdown, Dual-Glo Luciferase Assay
Type: cell-based, human
Conditions: Hepal-6 + reporter plasmid, 24 hr
Method: as §1, §2, §3, §4

Substance | pIC50
XD-09240: siRNA targeting CD207 (sense 5'-guGAGcAcucAGGauGAcudTsdT-3'; antisense 5'-AGUcAUCCUGAGUGCUcACdTsdT-3'; as printed in the source, key not given here) | 9.17
XD-09241: siRNA targeting CD207 (sense 5'-gaAAAcAcccAcAguccGudTsdT-3'; antisense 5'-ACGGACUGUGGGUGUUUUCdTsdT-3'; as printed in the source, key not given here) | 9.69
XD-09242: siRNA targeting CD207 (sense 5'-caGuccGuGcuGcauuAAudTsdT-3'; antisense 5'-AUuAAUGcAGcACGGACUGdTsdT-3'; as printed in the source, key not given here) | 11.05
XD-09243: siRNA targeting CD207 (sense 5'-guccGuGcuGcAuuAAucudTsdT-3'; antisense 5'-AGAUuAAUGcAGcACGGACdTsdT-3'; as printed in the source, key not given here) | 9.70
XD-09245: siRNA targeting CD207 (sense 5'-gcGuucAGAuccAgAuGGudTsdT-3'; antisense 5'-ACcAUCUGGAUCUGAACGCdTsdT-3'; as printed in the source, key not given here) | 10.70
XD-09246: siRNA targeting CD207 (sense 5'-aaAuAcAAAGAuccGGGcAdTsdT-3'; antisense 5'-UGCCCGGAUCUUUGuAUUUdTsdT-3'; as printed in the source, key not given here) | 10.60
XD-09248: siRNA targeting CD207 (sense 5'-uauucuAcAGGuGguuucudTsdT-3'; antisense 5'-AGAAACcACCUGuAGAAuAdTsdT-3'; as printed in the source, key not given here) | > 11.30
XD-09249: siRNA targeting CD207 (sense 5'-uauAGuGccGAGcaGuucudTsdT-3'; antisense 5'-AGAACUGCUCGGcACuAuAdTsdT-3'; RNA with 2'-O-methyl and phosphorothioate modifications, case key not given here, as printed in the source, key not given here) | 9.82
